Results as given in patent US10202367B2, “Heterocyclic compounds and methods of use thereof” (priority 2014, dated 2019).
Where “and” joins values, the source holds several entries; their conditions need not be identical. Identical values can stand only once. Like-named read-outs stand apart in the source and are kept apart here.

Tests used:
HCVcc-RLuc = HCVcc-RLuc assay, combination of compound 3 with anti-HCV drugs (CalcuSyn / MacSynergy II); type: cell-based, Hepatitis C virus
[1] = Aqueous solubility in PBS; type: physicochemical
[2] = Stability in PBS or PBS/acetonitrile (1/1); type: physicochemical; details: 10 μM, PBS and PBS/acetonitrile (1/1), pH 7.4, room temperature, after 48 hours
Description: (§1) Procedure: […] The mixtures were sampled every hour for eight hours or every 8 hours for 48 hours and analyzed by RP HPLC/UV/HRMS. The analytical RP HPLCUV/HRMS system utilized for the analysis was a Waters Acquity system with UV-detection and mass-detection (Waters SQD). […] Absolute areas under the curve were compared at each time point to determine relative percent compound remaining. The masses of potential adducts were searched for in the final samples to determine if any detectable adduct formed. All samples were prepared in duplicate and the average plotted. Ethacrynic acid, a known Michael acceptor, was used as a positive control. […] To determine the stability of the probe compound to nucleophilic degradation, the compound was dissolved in the two solvent systems above in the presence of 50 μM dithiothreitol (DTT) (FIGS. 2A and 2B).

[3] = Stability to nucleophilic degradation in presence of 50 μM dithiothreitol; type: physicochemical; details: 10 μM, 50 μM DTT, PBS and PBS/acetonitrile (1/1), after 8 hours
Description: as §1

HCVsc, genotype 2a = type: cell-based, Hepatitis C virus; details: 10 μM
GT 2a replicon RNA = type: cell-based, Hepatitis C virus
[4] = test system: HCV replicon (GT 2a) cells; type: cell-based, Hepatitis C virus
HCVpp GT 1a = assay: HCVpp entry assay; type: cell-based, Hepatitis C virus; details: Huh7.5.1 cells
VSVpp = type: cell-based, vesicular stomatitis virus
Cell permeability = type: in vitro ADME
in vitro = details: rat, microsomes, Rat liver microsomes t ½ (min)

With `C[C@@]1(O)[C@H](O)[C@@H](CO)O[C@H]1n1ccc(N)nc1=O` [2′-C-methylcytidine] the “CalcuSyn synergy volume (level of synergy)” value (from here on “CalcuSyn synergy volume”) (HCVcc-RLuc; tested drug combined with compound 3 (SID 144187742)) was “+/− (nearly additive (0.9 < CI < 1.1))”, the “CalcuSyn CI value (combination index)” value (HCVcc-RLuc; tested drug combined with compound 3 (SID 144187742) at or near their EC50 values, mean ± SEM, n ≥ 6) was 1.10 and the “MacSynergy synergy volume (level of synergy)” value (from here on “MacSynergy synergy volume”) (HCVcc-RLuc; tested drug combined with compound 3, Bliss independence model, MacSynergy II) was “+++ (strong synergy (log volume > 9))”.
For `Cc1cccc(Cl)c1-c1nc(CN2CCC(C(=O)NCCCN3C[C@H](C)C[C@H](C)C3)CC2)c(C)o1` [Compound 1, 1-((2-(2-Chloro-6-methylphenyl)-5-methyloxazol-4-yl)methyl)-N-(3-(cis-3,5-dimethylpiperidin-1-yl)propyl)piperidine-4-carboxamide], the “Sol.” value [1] was >74.0 µg/mL, the solubility ([1]; phosphate buffered saline (PBS), aqueous buffer, PBS, pH 7.4, room temperature (23° C.)) was > 74 µg/mL and > 147 µM and the “sample still detected in the supernatant” value [2] was “greater than 97%”. For the same compound, the “degradation in presence of dithiothreitol” value [3] was “no measurable degradation”.
With `Cc1ccccc1-c1nc(CN2CCC(C(=O)NCCCN3C[C@H](C)C[C@H](C)C3)CC2)c(C)o1` [Compound 3] the “Sol.” value [1] was 53.9 µg/mL, the “inhibitory activity on HCVsc infection level” value (HCVsc, genotype 2a) was “dramatic inhibitory activities” and the “inhibitory effect on HCV replication, transient transfection with GT 2a replicon RNA” value (GT 2a replicon RNA; 10 μM) was “no inhibitory effect”. The “% RLU at 10 μM, HCV subgenomic replicon Transient GT 2a” value (GT 2a replicon RNA; Huh7.5.1 cells, 48 h) was 105 % RLU, the “inhibitory effect on HCV replication, GT 2a replicon cell line” value ([4]; 10 μM) was “no inhibitory effect” and the “% RLU at 10 μM, HCV subgenomic replicon GT 2a cell line” value ([4]; 48 h) was 103 % RLU. The “% RLU at 10 μM, HCVpp GT 1a” value (HCVpp GT 1a) was < 30 % RLU, the “% RLU at 10 μM, VSV pp” value (VSVpp) was ~50 % RLU and the “antiviral effect in combination with ribavirin, interferon, telaprevir, daclatasvir, cyclosporin A and 2′-C-methylcytidine” value (HCVcc-RLuc; combination) was “synergistic”.
For `CCN(CC)CCCCNC(=O)C1CCN(Cc2nc(-c3cc(OC)cc(OC)c3)oc2C)CC1` [Compound 8], the “Permeability (le^−6 cm/s)” value (Cell permeability) was 10.4 le^−6 cm/s and the “Sol.” value [1] was >72.0 µg/mL.
For `Cc1ccccc1-c1nc(CN2CCC(C(=O)NCCN3CCCCC3)CC2)c(C)o1` [Compound 11], the “Permeability (le^−6 cm/s)” value (Cell permeability) was 987.3 le^−6 cm/s and the “Sol.” value [1] was 47 µg/mL.
In the case of `Cc1oc(-c2c(C)c(C)c(C)c(C)c2C)nc1CN1CCC(C(=O)NCCCN2C[C@H](C)C[C@H](C)C2)CC1` [Compound 56], the “Permeability (le^−6 cm/s)” value (Cell permeability) is reported as 455.2 le^−6 cm/s.
In the case of `Cc1ccc2ccccc2c1-c1nc(CN2CCC(C(=O)NCCCN3C[C@H](C)C[C@H](C)C3)CC2)c(C)o1` [Compound 62], the “Sol.” value [1] is reported as >76.1 µg/mL.
In the case of `Cc1ccccc1-c1nc(CN2CCC(C(=O)NCCCN3C[C@H](C)C[C@H](C)C3)CC2)c(C)o1` [Compound 63], the “Sol.” value [1] is reported as 54.8 µg/mL.
For `Cc1ccccc1-c1nc(CN2CCC(C(=O)NCCCN3C[C@H](C)C[C@H](C)C3)CC2)c(C)o1` [Compound 64], the “Sol.” value [1] was >69.0 µg/mL.
For `Cc1ccccc1-c1nc(CN2CCC(C(=O)NCCCN3C[C@H](C)C[C@H](C)C3)CC2)c(C)s1` [Compound 65], the “Sol.” value [1] was >71.0 µg/mL.
For `Cc1ccccc1-c1nc(CC2CCC[C@@H](C(=O)CCCCN3C[C@H](C)C[C@H](C)C3)C2)c(C)o1` (stereo partly drawn) [Compound 66], the “Permeability (le^−6 cm/s)” value (Cell permeability) was 864.8 le^−6 cm/s, the “Sol.” value [1] was 57.8 µg/mL and the half-life (in vitro) was 3.9 min.
With `Cc1ccccc1-c1nc(CN2CCC[C@@H](C(=O)NCCCN3C[C@H](C)C[C@H](C)C3)C2)c(C)o1` [Compound 67] the “Permeability (le^−6 cm/s)” value (Cell permeability) was 864.8 le^−6 cm/s, the “Sol.” value [1] was 57.8 µg/mL and the half-life (in vitro) was 3.9 min.
For `C[C@@H]1C[C@H](C)CN(CCCNC(=O)C2CCN(Cc3oc(-c4cc(C(F)(F)F)cc(C(F)(F)F)c4)nc3C(F)(F)F)CC2)C1` [Compound 68], the “Permeability (le^−6 cm/s)” value (Cell permeability) was 1061 le^−6 cm/s, the “Sol.” value [1] was 2.5 µg/mL and the half-life (in vitro) was 16.4 min.
For `CC1CCCN(CCCNC(=O)C2CCN(Cc3oc(-c4cc(C(F)(F)F)cc(C(F)(F)F)c4)nc3C(F)(F)F)CC2)C1` (stereo not drawn) [Compound 69], the “Permeability (le^−6 cm/s)” value (Cell permeability) was >1397 le^−6 cm/s and the half-life (in vitro) was 5.7 min.
For `Cc1cc(-c2nc(CN3CCC(C(=O)NCCCN4C[C@H](C)C[C@H](C)C4)CC3)co2)ccc1F` [Compound 70], the “Sol.” value [1] was >70 µg/mL.
With `Cc1cc(-c2nc(CN3CCC(C(=O)NCCCN4CCC(C(C)C)CC4)CC3)co2)ccc1F` [Compound 71] the “Sol.” value [1] was >72 µg/mL.
For `COC(=O)N[C@H](C(=O)N1CCC[C@H]1c1nc(-c2ccc(-c3ccc(-c4c[nH]c([C@@H]5CCCN5C(=O)[C@@H](NC(=O)OC)C(C)C)n4)cc3)cc2)c[nH]1)C(C)C` [Daclatasvir], the “CalcuSyn CI value (combination index)” value (HCVcc-RLuc) was 0.510 and the “CalcuSyn synergy volume” value (HCVcc-RLuc) was “+++ (key: +/−: nearly additive (0.9 < CI < 1.1); ++: moderate synergy (0.7 < CI < 0.85); +++: synergy (0.3 < CI < 0.7))”.
For `NC(=O)c1ncn([C@@H]2O[C@H](CO)[C@@H](O)[C@H]2O)n1` [Ribavirin], the “CalcuSyn CI value (combination index)” value (HCVcc-RLuc) was 0.770, the “CalcuSyn synergy volume” value (HCVcc-RLuc) was “++ (key: +/−: nearly additive (0.9 < CI < 1.1); ++: moderate synergy (0.7 < CI < 0.85); +++: synergy (0.3 < CI < 0.7))” and the “MacSynergy synergy volume” value (HCVcc-RLuc) was “+++ (key: ++: moderate synergy (5 < log volume < 9); +++: strong synergy (log volume > 9))”.
For `CCC[C@H](NC(=O)[C@@H]1[C@H]2CCC[C@H]2CN1C(=O)[C@@H](NC(=O)[C@@H](NC(=O)c1cnccn1)C1CCCCC1)C(C)(C)C)C(=O)C(=O)NC1CC1` [Telaprevir], the “CalcuSyn CI value (combination index)” value (HCVcc-RLuc) was 0.775, the “CalcuSyn synergy volume” value (HCVcc-RLuc) was “++ (key: +/−: nearly additive (0.9 < CI < 1.1); ++: moderate synergy (0.7 < CI < 0.85); +++: synergy (0.3 < CI < 0.7))” and the “MacSynergy synergy volume” value (HCVcc-RLuc) was “+++ (key: ++: moderate synergy (5 < log volume < 9); +++: strong synergy (log volume > 9))”.
In the case of IFN-α, the “CalcuSyn CI value (combination index)” value (HCVcc-RLuc) is reported as 0.545 and the “CalcuSyn synergy volume” value (HCVcc-RLuc) is reported as “+++ (key: +/−: nearly additive (0.9 < CI < 1.1); ++: moderate synergy (0.7 < CI < 0.85); +++: synergy (0.3 < CI < 0.7))”.
